Measurements taken from patent EP0903346A1, “SYDNONE IMINE DERIVATIVES” (Chugai Seiyaku Kabushiki Kaisha, priority 1995, dated 1997).
pIC50: −log10 of the molar value. Read-outs that look alike come from different tables or passages of the source.

Assays:
[1] = test system: platelet rich plasma (PRP); assay: Inhibitory effect on platelet aggregation in rabbit; format: cell-based; conditions: Oryctolagus cuniculus, aggregation agent arachidonic acid, pre-incubated for 3 minutes, invention compound n = 1 - 3, aspirin n = 7, read-out: Rabbit antiplatelet aggregation effect IC50
Description: Male JW/CSK rabbits weighing 2.6 to 3.1 kg were anesthetized with thiopental (20 mg/kg). Then the blood of each animal was collected from the left carotid artery into a container containing a 3.8% solution of citric acid (9 : 1 v/v). The collected blood was immediately centrifuged at room temperature at 1,300 rpm (230 G) for 10 minutes to give a platelet rich plasma (PRP). Further, a required amount of the blood was centrifuged at 3,000 rpm (1,300 G) for 15 minutes to give a platelet poor plasma (PPP). The PRP to be used in the platelet aggregation test was diluted with PPP to adjust the platelet count to 3 x 10^8. The aggregability was measured by using a platelet aggregation measuring device (TE-500, ERMA) with the use of arachidonic acid ([…]) as an aggregation agent. Each test compound was mixed with PRP and pre-incubated for 3 minutes. Next, the aggregation agent was added thereto and the aggregability was measured for 5 minutes. Thus, the activity of the test compound was evaluated by determining the 50% inhibitory concentration (IC50; µM) thereof to the maximum aggregation induced by the arachidonic acid. As the test compounds, the compounds of the present invention obtained in the above Examples were employed. As a control drug, use was made of aspirin which has been widely known as a platelet aggregation inhinitor. Table E summarizes the results. Table E

[2] = test system: rat A-V shunt model; assay: Effect on blood coagulability in rat A-V shunt model; format: in vivo; conditions: 10 mg/kg p.o.; from 75 minutes to 2 hours after administration; mean ± S.E. (n = 6)
Description: Rat A-V shunts models were prepared by reference to the method of Umezu et al. (Thrombos Haemostas. 1978:39:74 - 83). Male SD rats were anesthetized with sodium pentobarbital (50 mg/kg, i.p.) and fixed in the supine position. A thick polyethylene tube (6 cm; Hibiki No. 7, Kunii Co.) containing a silk suture thread was connected at both ends to another thin polyethylene tube (10 cm, Hibiki No. 4, Kunii Co.) and then inserted into the left common carotid artery and the right internal jugular vein of the rat so as to form an external blood circulation system (A-V Shunt). The blood was circulated within the shunt system for 15 minutes and then the blood coagulates adhering to the silk suture thread in the thick tube was weighed. After repeating this operation thrice, the total weight was determined and the activity of each test compound was evaluated based thereon.
In this experiment, the anti-aggregation effects achieved from 75 minutes to 2 hours after the peroral administration were examined in a vehicle group (0.3% carboxymethyl cellulose, hereinafter referred to simply as CMC; n = 6), a group of the compound of Example 2 (10 mg/kg; n = 6) and a group of FK-409 (10 mg/kg; n = 6) which had been reported as being capable of inhibiting the formation of blood coagulates (European Journal of Pharmacology, 1995:272:39 - 43). Table F summarizes the results. Table F […]

[3] = test system: isolated rat aorta; assay: Test with the use of isolated rat aorta (relaxation of potassium chloride contraction); conditions: read-out: Rat aorta IC50
Description: The thoracic aorta was taken out from male Sprague Dawley rats weighing 450 to 600 g and cut into circular samples of 2 mm in width. […] The contraction reactions of the samples were isometrically recorded with FD pick-up. After 1 to 1.5 hours of equilibration, 30 mM potassium chloride was added to contract the tissue. […] As the test compounds, the invention compounds obtained in the above Examples were employed.

[4] = test system: anesthetized rat; assay: Blood pressure-lowering effect in anesthetized rat; format: in vivo; conditions: duodenal administration; for Blood pressure-lowering effect ED30: dose causing a decrease in the blood pressure by 30%; for Blood pressure-lowering effect Half duration: half duration at ED30 (recovery to 50% of the maximum decrease in blood pressure)
Description: Male Sprague Dawley rats weighing 280 to 450 g were anesthetized with sodium pentobarbital (50 mg/kg, i.p.) and fixed in the supine position. A canula was inserted into the trachea of each animal. Then the blood pressure of the animal was measured (AP-621G, Nippon Kohden Corp.) through a polyethylene tube (PE50) inserted into the right femoral artery via a pressure transducer (Life Kit DTS, DX-300, Nippon Kohden Corp.) and the heart rate was determined from the pulse wave (AT-610G, Nippon Kohden Corp.). A canula (PE10) for injecting the maintenance anesthetic drug (sodium pentobarbital 20 mg/kg/h) was inserted into the right femoral vein. The abdominal region was medianly sectioned and a canula (PE50 connected to a injection needle 23G) for duodenal drug administration was inserted thereinto and fixed with Aronalpha for surgical use. After 60-90 minutes of recovery period, the drug was administered into duodenum. After administering the drug, the blood pressure was measured until the average blood pressure returned to the level before the administration.
As the indication of the blood pressure-lowering effect of each drug, the dose causing a decrease in the blood pressure by 30%, based on the level before the administration, was calculated from the dose-response curve and employed as the 30% effective dose (ED30). Moreover, the time required for the recovery to the level corresponding to 50% of the maximum decrease in the blood pressure (half duration) was measured at each dose. Then the half duration at the above-mentioned ED30 was calculated and employed as the indication of the lasting time of the blood pressure-lowering effect (half duration at ED30).
As the test compounds, use was made of the compounds of the present invention obtained in the above Examples. Table C summarizes the results. Table C

[5] = test system: rat ischemia-reperfusion model; assay: Myocardial necrosis inhibitory effect in rat ischemia-reperfusion model; format: in vivo; set-up: LDH / CK: unit not given here; conditions: mean ± standard error; for NA/RA: necrosis area/risk area; for CK: serum creatine kinase activity after reflow; for LDH: serum lactate dehydrogenase activity after reflow
Description: Male Sprague Dawley rats weighing 270 to 410 g were anesthetized with sodium pentobarbital (50 mg/kg, i.p.) and fixed in the supine position. A canula was inserted into the trachea of each animal. Then the blood pressure of the animal was measured (AP-621G, Nippon Kohden Corp.) through a polyethylene tube (PE50, Becton Dickinson) inserted into the right femoral artery via a pressure transducer (Life Kit DTS, DX-300, Nippon Kohden Corp.) and the heart rate was determined from the pulse wave (AT-610G, Nippon Kohden Corp.). Two canulae (PE10 and PE50, Becton Dickinson) for injecting the maintenance anesthetic drug (sodium pentobarbital 20 mg/kg/h) and a coloring matter respectively were inserted into the right jugular vein. The left jugular vein was exposed for blood collection. The chest was opened by vertically sectioning the chest region from the third to fifth left ribs about 10 mm apart from the median line under artificial respiration with room air (Harvard respirator, model 683, rate : 60 strokes/min. tidal volume : 10 ml/kg body weight). Then the operative field was enlarged with a wound retractor and the heart sac was peeled off to thereby expose the heart. By using a curved round needle with thread for vascular tract (8mm, 6-0 black blaid silk, Matsuda Medical Industry), a thread of 4 to 5 mm in length was put in the left ventricle in the depth of 2 mm for ligating the coronary artery. After the completion of the operation, the animal was allowed to stand as such for 20 minutes or longer. After confirming that the blood pressure and the heart rate had been stabilized, the experiment was initiated.
In this experiment, use was made of eight groups of rats including: 1) a physiological saline (i.e., the solvent for SIN-1) group; 2) an SIN-1 (3 µg/kg/min) group; 3) another SIN-1 (10 µg/kg/min) group; 4) 1% DMSO-containing physiological saline (adjusted to pH 5 with hydrochloric acid, i.e., the solvent for the compounds of Examples 1 and 2) group; 5) a group of the compound of Example 1 (10 µg/kg/min); 6) another group of the compound of Example 1 (30 µg/kg/min); 7) a group of the compound of Example 2 (3 µg/kg/min); and 8) another group of the compound of Example 2 (10 µg/kg/min). Each drug was intravenously administered continuously for 75 minutes (from 15 minutes before the ligation of the coronary artery to the completion of the reflow) at a rate of 0.95 ml/h. Fifteen minutes after the initiation of the drug administration, the coronary artery was ligated and maintained for 30 minutes. The coronary artery was ligated by the snare method with the use of a polyethylene tube (PE160, Becton Dickinson) and a vascular clamp (C-17 grooved, Natsume). After 30-minutes reflow, the risk area (RA) and the necrosis area (NA) were measured.
The risk area and the necrosis area formed by ligating the coronary artery were measured by the double staining method with Evans blue and triphenyltetrazolium chloride (TTC) in the following manner. To clarify the risk area, the coronary artery was ligated again after the completion of the reflow. Subsequently, 1 ml of 5% Evans blue (Sigma) and a 1 M solution of KCl were successively injected into the jugular vein until the heart arrest. Thus, the non-risk area was stained dark blue. After the heart arrest, the heart was quickly taken out and washed with physiological saline. Then the left ventricle was separated and cut into circular slices of 3 mm in width with a trimming blade (Feather). To decide the necrosis area, these slices were incubated in a 0.1 M phosphate buffer (81 mM Na2HPO4: 19 mM NaH2PO4, pH 7.4) containing 1% TTC at 37°C for 5 minutes. Thus, living cells were exclusively stained red with TTC while the necrosis area was not stained. After staining with TTC, each wet slice was weighed, fixed with 20% formalin and then photographed while allowing to stand in physiological saline. […]

[6] = 3 µg/kg/min intravenously for 75 minutes
[7] = 10 µg/kg/min intravenously for 75 minutes
[8] = 30 µg/kg/min intravenously for 75 minutes

C[C@H](CSC(=O)c1ccccc1)C(=O)[N-]c1c[n+](N2CCN(C)CC2)no1 [Example 2, N-((S)-3-(Benzoylthio)isobutyryl)-3-(4-methylpiperazin-1-yl)sydnonimine]
pIC50 [1]: 4.80

CCN1CCN([n+]2cc([N-]C(=O)CSC(=O)C3(C)CCc4c(C)c(O)c(C)c(C)c4O3)on2)CC1 (stereo not shown) [Example 192, N-((6-Hydroxy-2,5,7,8-tetramethylchroman-2-carbonylthio)acetyl)-3-(4-ethylpiperazin-1-yl)sydnonimine]
pIC50 [1]: 5.41

CN1CCN([n+]2cc([N-]C(=O)CCSC(=O)c3ccc(F)cc3)on2)CC1 [Example 135, N-(3-(4-Fluorobenzoylthio)propionyl)-3-(4-methylpiperazin-1-yl)sydnonimine]
pIC50 [1]: 4.89

COc1ccc(C(=O)SCCC(=O)[N-]c2c[n+](N3CCN(C)CC3)no2)cc1 [Example 139, N-(3-(4-Methoxybenzoylthio)propionyl)-3-(4-methylpiperazin-1-yl)sydnonimine]
pIC50 [1]: 4.80

CC/C(=C\C(=N/O)C(N)=O)C(C)[N+](=O)[O-] (stereo not shown) [FK409]
Blood coagulability in rat A-V shunt model p.o. administration; wt. (mg) of coagulates [2]: 89.17 ± 8.43 mg

Cl.N=c1c[n+](N2CCOCC2)[n-]o1 [SIN-1, 3-morpholinosydnonimine hydrochloride, reference compound]
pIC50 ([3]; relaxation of continuous contraction due to 30 mM potassium chloride, thoracic aorta of male Sprague Dawley rats): 6.07
Blood pressure-lowering effect ED30 [4]: 1.0 mg/kg
Blood pressure-lowering effect Half duration [4]: 75 min
NA/RA [5, 6]: 18.5±4.3%
CK [5, 6]: 3138±207
LDH [5, 6]: 1082±60
NA/RA [5, 7]: 19.3±5.2%
CK [5, 7]: 2853±507
LDH [5, 7]: 1196±166

CCN1CCN([n+]2cc([N-]C(=O)[C@H](C)CSC(=O)c3ccccc3)on2)CC1 [Example 68, N-((S)-3-(Benzoylthio)isobutyryl)-3-(4-ethylpiperazin-1-yl)sydnonimine]
pIC50 [1]: 4.98

CC(=O)Oc1ccccc1C(=O)O [aspirin, reference compound]
pIC50 [1]: 4.56

CN1CCN([n+]2cc([N-]C(=O)CSc3cc(C(C)(C)C)c(O)c(C(C)(C)C)c3)on2)CC1 [Example 1, N-((3,5-Di-t-butyl-4-hydroxyphenylthio)acetyl)-3-(4-methylpiperazin-1-yl)sydnonimine]
pIC50 [3]: 6.19
Blood pressure-lowering effect ED30 [4]: 5.5 mg/kg
Blood pressure-lowering effect Half duration [4]: 151 min
NA/RA [5, 7]: 33.4±6.1%
CK [5, 7]: 3237±803
LDH [5, 7]: 1538±254
NA/RA [5, 8]: 22.3±6.1 p<0.01 vs. 4%
CK [5, 8]: 2772±496
LDH [5, 8]: 1339±343

CC(=O)SCC(=O)[N-]c1c[n+](N2CCN(C(C)C)CC2)no1 [Example 86, N-(Acetylthioacetyl)-3-(4-isopropylpiperazin-1-yl)sydnonimine]
pIC50 [1]: 5.89

CN1CCN([n+]2cc([N-]C(=O)CSC(=O)c3ccccc3)on2)CC1 [Example 3, N-((Benzoylthio)acetyl)-3-(4-methylpiperazin-1-yl)sydnonimine]
pIC50 [1]: 5.57

CC(C)N1CCN([n+]2cc([N-]C(=O)CSC(=O)c3ccccc3)on2)CC1 [Example 88, N-(Benzoylthioacetyl)-3-(4-isopropylpiperazin-1-yl)sydnonimine]
pIC50 [1]: 5.96
